Reference: patent publication US20230136600A1, “Method and device for screening antigen epitope polypeptide” (priority 2020, published 2023)

System: Balb/c mice
Assay: Polypeptide chip-based vaccine immunogenicity scoring system
Type: in vivo
Design: key to A2: whether the 95 percentile of the last sampling is increased compared with the end point: Y = rise; N = no rise
Conditions: Embodiment III, polypeptide-KLH; for A1: difference between a highest median and a D 0 median (95 percentile) / A2: whether the 95 percentile of the last sampling is increased compared with the end point: Mix1-10; for Total single peptide: A*3 + B*2 + C*1; for A: 95 percentile grouping number score / B: Mouse performance score: total score = 5; for C1: #A timing-sequence response peptide fragment set / C2: #B vaccine specificity peptide fragment set / C3: Intersection of A and B / C4: Percentage of the intersection in set B / C: Timing-sequence response and specificity score: value of the whole mix
Protocol: Data distribution and characteristics thereof are analyzed based on a) and b), a polypeptide chip-based vaccine immunogenicity scoring system (referring to Table 7) is designed.
10 combinations are evaluated by the polypeptide chip-based vaccine immunogenicity scoring system. An evaluation method is consistent with that in Embodiment II. Evaluation results are show in the table below.
This embodiment is consistent with Embodiment II. Each combination is evaluated by the polypeptide chip-based vaccine immunogenicity scoring system. Evaluation results are show in the table below.

Sequence | B1: D 0-D 14 95 percentile rise in the number of mice | B2: D 0-D 21 95 percentile rise in the number of mice | B3: D 14-D 21 95 percentile rise in the number of mice | B4: D 21-D 28 95 percentile rise in the number of mice | A1: difference between a highest median and a D 0 median (95 percentile) | A2: whether the 95 percentile of the last sampling is increased compared with the end point | Total single peptide | A: 95 percentile grouping number score | B: Mouse performance score | C1: #A timing-sequence response peptide fragment set | C2: #B vaccine specificity peptide fragment set | C3: Intersection of A and B | C4: Percentage of the intersection in set B | C: Timing-sequence response and specificity score
ETSNSFDVLKSE [SEQ ID NO:30] | 2 | 2 | 2 | 1 | 0.02 | N | 6.7 | 1 | 1.6 | 230 | 251 | 1 | 0.398 | 0.5
RLFRKSNLK (SARS-CoV-2) [SEQ ID NO:35] | 3 | 3 | 2 | 0 | 0.10 | N | 16.3 | 4 | 1.9 | 352 | 541 | 1 | 0.185 | 0.5
ALNTPKDH (SARS-CoV-2) [SEQ ID NO:19] | 3 | 3 | 0 | 1 | 0.12 | N | 17.9 | 4.5 | 1.7 | 288 | 268 | 4 | 1.493 | 1
KVFRSSVLHSTQ [SEQ ID NO:6] | 3 | 3 | 0 | 2 | 0.09 | Y | 16.3 | 4 | 1.9 | 1212 | 389 | 1 | 0.257 | 0.5
VNKGEDIQLLKS [SEQ ID NO:27] | 3 | 3 | 1 | 0 | 0.14 | N | 17.4 | 4.5 | 1.7 | 133 | 431 | 1 | 0.232 | 0.5
ECVLGQSKR (SARS-CoV-2) [SEQ ID NO:10] | 3 | 3 | 1 | 0 | 0.11 | N | 17.9 | 4.5 | 1.7 | 1494 | 190 | 2 | 1.053 | 1
DYNYKLPDD (SARS-CoV-2) [SEQ ID NO:11] | 3 | 3 | 1 | 2 | 0.12 | Y | 20.2 | 5 | 2.1 | 288 | 268 | 4 | 1.493 | 1
GTITVEELKK (SARS-CoV-2) [SEQ ID NO:39] | 1 | 2 | 2 | 0 | 0.03 | N | 5.7 | 1 | 1.1 | 145 | 529 | 1 | 0.189 | 0.5
FHPLADNKF (SARS-CoV-2) [SEQ ID NO:17] | 3 | 2 | 0 | 2 | 0.10 | Y | 17.4 | 4.5 | 1.7 | 133 | 431 | 1 | 0.232 | 0.5
ERSEKSYEL (SARS-CoV-2) [SEQ ID NO:28] | 1 | 2 | 0 | 1 | 0.11 | N | 14.3 | 4 | 0.9 | 1212 | 389 | 1 | 0.257 | 0.5
